Data set [1] can be described thus: Cytotoxicity against mouse NIH/3T3 cells assessed as growth inhibition after 72 hrs by neutral red staining based colorimetric assay. The data set is classed as cell-based. The conditions noted are these: NIH3T3, 72 h.
The next data set relates to KB. Kind of data set: Cytotoxicity against human KB cells assessed as growth inhibition after 72 hrs by neutral red staining based colorimetric assay. The data set is classed as functional, cell-based.
The nature of data set [2]: Cytotoxicity against mouse NIH/3T3 cells assessed as growth inhibition at 100 uM after 72 hrs by neutral red staining based colorimetric assay. The data set is classed as cell-based. The conditions noted are these: nih3t3, 72 h.
In another data set the test system is MCF7. The data set is described as follows: Cytotoxicity against human MCF7 cells assessed as growth inhibition after 72 hrs by neutral red staining based colorimetric assay. Format: functional, cell-based. The conditions noted are these: MCF7, 72 h.
In another data set the test system is Lu1. The data set is described as follows: Cytotoxicity against human Lu1 cells assessed as growth inhibition after 72 hrs by neutral red staining based colorimetric assay. Format: functional, cell-based. The conditions noted are these: Lu1, 72 h.
The subject of another data set is HepG2. The data set is described as follows: Cytotoxicity against human HepG2 cells assessed as growth inhibition after 72 hrs by neutral red staining based colorimetric assay. The conditions noted are these: HepG2, 72 h. The data set is classed as functional, cell-based.

SMILES strings stand for the structures.

As for `C=CC(=C)CC[C@]1(C)[C@H](C)[C@@H](OC(=O)/C=C/c2ccc(O)cc2)[C@H](O)[C@@]23C(=C[C@H](OC(=O)CCC)C[C@@H]12)[C@H](OC)O[C@H]3OC`, the half-inhibitory concentration (IC50) (usually the concentration that gives 50% inhibition) in data set [1] was above 10 µM; in the data set with KB, 6.2 µM; in the data set with MCF7, above 10 µM; in the data set with Lu1 it was above 10 µM; in the data set on HepG2, 7 µM. Besides, in data set [2], the Activity entry is “Non-toxic”.
With `C=CC(=C)CC[C@]1(C)[C@H](C)[C@@H](OC(=O)/C=C/c2ccc(O)cc2)[C@H](O)[C@@]23C(=C[C@H](OC(=O)CC(C)C)C[C@@H]12)[C@H](OC)O[C@H]3OC(C)=O`, the IC50 (in data set [1]; in the data set with KB; with MCF7; in the data set with Lu1; in the data set on HepG2) was above 10 µM in each case.
In the case of `C=CC(=C)CC[C@]1(C)[C@H](C)C[C@H](O)[C@@]23C(=C[C@H](OC(=O)CCC)C[C@@H]12)[C@@H](OC(C)=O)O[C@H]3OC(C)=O` [CASEANIGRESCEN D], the 50% inhibitory concentration (IC50) in data set [1] is 0.3 µM; in the data set with KB it was 0.5 µM; in the data set with MCF7, 0.8 µM; in the data set with Lu1, 0.9 µM; in the data set with HepG2 it was 0.3 µM.
For `Cc1c2ccncc2c(C)c2c1[nH]c1ccccc12` [ELLIPTECINE], the IC50 in data set [1] was determined as 1.3 µM; in the data set with KB it was 1.4 µM; in the data set on MCF7, 0.9 µM; in the data set with Lu1, 1.2 µM; in the data set on HepG2 it was 1.5 µM.

The values are drawn from ChEMBL document CHEMBL3739349, “Cytotoxic Clerodane Diterpenoids from the Leaves of Casearia grewiifolia” (J Nat Prod, 2015).
